Data as given in patent US9458132B2, “Therapeutic compounds and compositions and their use as PKM2 modulators” (AGIOS PHARMACEUTICALS, INC., priority 2012, dated 2016).

Experiments:
PKR WT [1] = target: T1, PKR WT (Homo sapiens, UniProt P30613); experiment: PKR WT enzymatic assay AC50; assay type: biochemical; settings: wild type PKR
Description: (§1) • PKR or PKR mutant enzyme solution was diluted in assay buffer. • 2 μL of test compound was added into wells first, and then 180 μL reaction mix was added. • Reactions mixture with test compound was assembled except for ADP, and plates were stored for 60 minutes at room temperature. • 20 uL ADP was added to start reaction at room temperature and reaction progress was measured as changes in absorbance at 340 nm wavelength at room temperature.
(§2) Test Compound Preparation: • Test compound stock was made at 100x concentration in 100% DMSO (10 mM) • 1 to 3 dilutions were made for 11 points (i.e. 50 μl of first concentration added to 100 μl 100% DMSO to yield 3.33 mM, 50 μl of this added to 100 μl DMSO to yield 1.11 mM, and so forth) • 1 to 100 dilution into assay (2 μl in 200 μl) yielded starting concentration of 100 μM, decreasing 3 fold for 11 points • Assay Buffer: 100 mM KCl, 50 mM Tris 7.5, 5 mM MgCl2, 1 mM DTT, 0.03% BSA • Reaction Mixture: PKR mutant enzyme: 80-400 ng/well; ADP: 0.22-1.65 mM; PEP: 0.1-0.5 mM; NADH:180 uM; LDH: 0.5 units (Sigma#59023); DTT: 1 mM; BSA: 0.03%.
(§3) A compound described herein was diluted with DMSO and tested at 1 μM concentration. The enzyme was diluted in 1× Buffer: (100 mM KCl, 50 mM Tris 7.5, 5 mM MgCl2, 1 mM DTT, 0.03% BSA). 2 μL of compound solution was first added into wells, and then 180 μL of enzyme solution was added. Assays were assembled except for ADP, and plates were stored for 60 minutes at RT. 20 μL ADP was added to start the assay and assay output was evaluated using OD340 at SpectraMax. The assay was run at room temperature. • Final concentration: PKR wt (100 ng/well), Tris pH 7.5 (50 mM), KCl (100 mM), MgCl2 (5 mM), ADP (0.48 mM), PEP (0.15 mM), NADH (180 μM), LDH (0.5 units, Sigma 59023), DTT (1 mM) and BSA (0.03%).

PKR R510Q = PKR R510Q (Homo sapiens, UniProt P30613, R510Q); experiment: PKR mutant assay, PKR R510Q AC50; assay type: biochemical; settings: mutant PKR R510Q enzyme
PKR R510Q, sequence (P30613 whole entry R510Q): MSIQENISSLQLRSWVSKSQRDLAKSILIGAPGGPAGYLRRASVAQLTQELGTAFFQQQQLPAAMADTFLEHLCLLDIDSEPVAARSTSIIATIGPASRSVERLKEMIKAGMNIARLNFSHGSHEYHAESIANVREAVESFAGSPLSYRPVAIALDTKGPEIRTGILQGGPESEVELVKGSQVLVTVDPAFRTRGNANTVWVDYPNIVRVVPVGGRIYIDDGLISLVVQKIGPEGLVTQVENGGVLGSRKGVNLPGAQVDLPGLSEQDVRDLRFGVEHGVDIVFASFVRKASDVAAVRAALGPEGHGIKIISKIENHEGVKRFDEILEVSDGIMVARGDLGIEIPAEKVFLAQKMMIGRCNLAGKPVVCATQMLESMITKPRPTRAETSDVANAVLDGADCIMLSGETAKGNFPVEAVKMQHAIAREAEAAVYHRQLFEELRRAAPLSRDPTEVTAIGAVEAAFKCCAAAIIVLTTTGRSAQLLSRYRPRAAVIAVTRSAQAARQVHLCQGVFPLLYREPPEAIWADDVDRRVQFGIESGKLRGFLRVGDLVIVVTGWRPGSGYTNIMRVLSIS
Description: as §1
as §2, with “0.03%. […]” for “0.03%.”

PKR WT [2] = target: T1, PKR WT; experiment: PKR WT cell based assay AC50; settings: wild type PKR
PKR R532W = PKR R532W (Homo sapiens, UniProt P30613, R532W); experiment: PKR mutant assay, PKR R532W AC50; assay type: biochemical; settings: mutant PKR R532W enzyme
PKR R532W, sequence (P30613 whole entry R532W): as the sequence (P30613 whole entry R510Q) above, with Q510R, R532W counted along it
Description: as §1, §2
as §3, with “R532W” for “wt”, “(0.36” for “(0.48”, “(0.1” for “(0.15”

T1 sequence (P30613 whole entry): as the sequence (P30613 whole entry R510Q) above, with Q510R counted along it

Row | AC50 (PKR WT [1]) [nM] | AC50 (PKR R510Q) [nM] | AC50 (PKR WT [2]) [nM] | AC50 (PKR R532W) [nM] | Compound
1 | < 100 | 101 to 1000 | < 100 | – | CCc1ccccc1C1(O)CN(C(=O)c2ccc(NS(=O)(=O)c3cccc4cccnc34)cc2)C1 [Compound 13, N-(4-(3-(2-ethylphenyl)-3-hydroxyazetidine-1-carbonyl)phenyl)quinoline-8-sulfonamide]
2 | < 100 | 101 to 1000 | 101 to 1000 | < 100 | O=C(c1ccc(NS(=O)(=O)c2cccc3cccnc23)cc1)N1CC(O)(c2ccccc2Cl)C1 [Compound 5, N-(4-(3-(2-chlorophenyl)-3-hydroxyazetidine-1-carbonyl)phenyl)quinoline-8-sulfonamide]
3 | 101 to 1000 | 101 to 1000 | 101 to 1000 | < 100 | O=C(c1ccc(NS(=O)(=O)c2cccc3cccnc23)cc1)N1CC(O)(c2ccccc2OC(F)(F)F)C1 [Compound 7, N-(4-(3-hydroxy-3-(2-(trifluoromethoxy)phenyl)azetidine-1-carbonyl)phenyl)quinoline-8-sulfonamide]
4 | 101 to 1000 | 101 to 1000 | 101 to 1000 | 101 to 1000 | COc1ncccc1C1(O)CN(C(=O)c2ccc(NS(=O)(=O)c3cccc4cccnc34)cc2)C1 [Compound 20, N-(4-(3-hydroxy-3-(2-methoxypyridin-3-yl)azetidine-1-carbonyl)phenyl)quinoline-8-sulfonamide]
5 | < 100 | 101 to 1000 | 101 to 1000 | < 100 | O=C(c1ccc(NS(=O)(=O)c2cccc3cccnc23)cc1)N1CC(O)(c2cccc(OC(F)(F)F)c2)C1 [Compound 10, N-(4-(3-hydroxy-3-(3-(trifluoromethoxy)phenyl)azetidine-1-carbonyl)phenyl)quinoline-8-sulfonamide]
6 | < 100 | < 100 | < 100 | < 100 | O=C(c1ccc(NS(=O)(=O)c2cccc3c2OCCO3)cc1)N1CC(O)(Cc2ccccc2)C1 [Compound 53, N-(4-(3-benzyl-3-hydroxyazetidine-1-carbonyl)phenyl)-2,3-dihydrobenzo[b][1,4]dioxine-5-sulfonamide]
7 | < 100 | 101 to 1000 | 101 to 1000 | < 100 | O=C(c1ccc(NS(=O)(=O)c2cccc3cccnc23)cc1)N1CC(O)(c2cccc(Cl)c2)C1 [Compound 11, N-(4-(3-(3-chlorophenyl)-3-hydroxyazetidine-1-carbonyl)phenyl)quinoline-8-sulfonamide]
8 | 1010 to 10000 | > 10000 | – | 1010 to 10000 | CC(C)C1(O)CN(C(=O)c2ccc(NS(=O)(=O)c3cccc4cccnc34)cc2)C1 [Compound 32, N-(4-(3-hydroxy-3-isopropylazetidine-1-carbonyl)phenyl)quinoline-8-sulfonamide]
9 | > 10000 | > 10000 | – | > 10000 | O=C(c1ccc(NS(=O)(=O)c2cccc3nonc23)cc1)N1CC(O)(Cc2ccccc2)C1 [Compound 69]
10 | 101 to 1000 | 101 to 1000 | – | 101 to 1000 | O=C(c1ccc(NS(=O)(=O)c2cccc3cccnc23)cc1)N1CC(O)(c2ccccc2C(F)(F)F)C1 [Compound 6, N-(4-(3-hydroxy-3-(2-(trifluoromethyl)phenyl)azetidine-1-carbonyl)phenyl)quinoline-8-sulfonamide]
11 | 101 to 1000 | > 10000 | – | 101 to 1000 | O=C(c1ccc(NS(=O)(=O)c2cccc3cccnc23)cc1)N1CC(O)(CC2CC2)C1 [Compound 37, N-(4-(3-(cyclopropylmethyl)-3-hydroxyazetidine-1-carbonyl)phenyl)quinoline-8-sulfonamide]
12 | 1010 to 10000 | > 10000 | – | 1010 to 10000 | CC(C)(C)C1(O)CN(C(=O)c2ccc(NS(=O)(=O)c3cccc4cccnc34)cc2)C1 [Compound 31, N-(4-(3-(tert-butyl)-3-hydroxyazetidine-1-carbonyl)phenyl)quinoline-8-sulfonamide]
13 | < 100 | 101 to 1000 | 101 to 1000 | – | O=C(c1ccc(NS(=O)(=O)c2cccc3cccnc23)cc1)N1CC(O)(c2cccnc2C(F)(F)F)C1 [Compound 17, N-(4-(3-hydroxy-3-(2-(trifluoromethyl)pyridin-3-yl)azetidine-1-carbonyl)phenyl)quinoline-8-sulfonamide]
14 | 1010 to 10000 | > 10000 | – | 1010 to 10000 | O=C(c1ccc(NS(=O)(=O)c2cccc3cccnc23)cc1)N1CC(O)(CCCO)C1 [Compound 40, N-(4-(3-hydroxy-3-(3-hydroxypropyl)azetidine-1-carbonyl)phenyl)quinoline-8-sulfonamide]
15 | 101 to 1000 | > 10000 | – | 1010 to 10000 | CCCC1(O)CN(C(=O)c2ccc(NS(=O)(=O)c3cccc4cccnc34)cc2)C1 [Compound 36, N-(4-(3-hydroxy-3-propylazetidine-1-carbonyl)phenyl)quinoline-8-sulfonamide]
16 | 1010 to 10000 | > 10000 | – | 1010 to 10000 | O=C(c1ccc(NS(=O)(=O)c2cccc3cnccc23)cc1)N1CC(O)(c2cccc(C(F)(F)F)c2)C1 [Compound 43, N-(4-(3-hydroxy-3-(3-(trifluoromethyl)phenyl)azetidine-1-carbonyl)phenyl)isoquinoline-5-sulfonamide]
17 | 1010 to 10000 | > 10000 | – | 1010 to 10000 | O=C(c1ccc(NS(=O)(=O)c2cccc3cccnc23)cc1)N1CC(O)(C2CC2)C1 [Compound 33, N-(4-(3-cyclopropyl-3-hydroxyazetidine-1-carbonyl)phenyl)quinoline-8-sulfonamide]
18 | 101 to 1000 | 1010 to 10000 | – | 101 to 1000 | O=C(c1ccc(NS(=O)(=O)c2cccc3cccnc23)cc1)N1CC(O)(c2ncccc2F)C1 [Compound 22, N-(4-(3-(3-fluoropyridin-2-yl)-3-hydroxyazetidine-1-carbonyl)phenyl)quinoline-8-sulfonamide]
19 | 101 to 1000 | 1010 to 10000 | – | 101 to 1000 | O=C(c1ccc(NS(=O)(=O)c2cccc3cccnc23)c(F)c1)N1CC(O)(Cc2ccccc2)C1 [Compound 46, N-(4-(3-benzyl-3-hydroxyazetidine-1-carbonyl)-2-fluorophenyl)quinoline-8-sulfonamide]
20 | > 10000 | > 10000 | – | > 10000 | Cn1c(=O)oc2cc(S(=O)(=O)Nc3ccc(C(=O)N4CC(O)(Cc5ccccc5)C4)cc3)ccc21 [Compound 70]
21 | 1010 to 10000 | > 10000 | – | 1010 to 10000 | O=C(c1ccc(NS(=O)(=O)c2ccccc2Cl)cc1)N1CC(O)(Cc2ccccc2)C1 [Compound 49, N-(4-(3-benzyl-3-hydroxyazetidine-1-carbonyl)phenyl)-2-chlorobenzenesulfonamide]
22 | 1010 to 10000 | > 10000 | – | > 10000 | O=C(c1ccc(NS(=O)(=O)c2cccc3cccnc23)cc1)N1CC(O)(CCO)C1 [Compound 38, N-(4-(3-hydroxy-3-(2-hydroxyethyl)azetidine-1-carbonyl)phenyl)quinoline-8-sulfonamide]
